Test results published in ChEMBL document CHEMBL3244268, “Nucleosides. 102. Synthesis of some 3'-deoxy-3'-substituted arabinofuranosylpyrimidine nucleosides” (1977).
Values after ≈ are worked out from the molar mass of the structure shown.

Test system: L5178Y
Assay: Growth inhibition of mouse L5178Y cells
Type: functional
Conditions: read-out: ID50 (the source's name)

Row | Structure (SMILES) | IC50 [µg/mL]
1 | Nc1ccn([C@@H]2O[C@H](CO)[C@@H](Br)[C@@H]2O)c(=O)n1 | 10 (≈ 32.7 µM)
2 | Nc1ccn([C@@H]2O[C@H](CO)[C@@H](I)[C@@H]2O)c(=O)n1 | 1 (≈ 2.83 µM)
3 | [N-]=[N+]=N[C@H]1[C@H](O)[C@H](n2ccc(N)nc2=O)O[C@@H]1CO | 0.5 (≈ 1.86 µM)

Test system: L5178Y
Assay: Growth inhibition of mouse L5178Y cells at 10 ug/ml
Type: functional
Conditions: read-out: GI

Row | Structure (SMILES) | inhibition of growth at 10 µg/mL [%]
4 | O=c1ccn([C@@H]2O[C@H](CO)[C@@H](Br)[C@@H]2O)c(=O)[nH]1 | 6
5 | O=c1ccn([C@@H]2O[C@H](CO)[C@@H](N=C=S)[C@@H]2O)c(=O)[nH]1 | 5
6 | Nc1ccn([C@@H]2O[C@H](CO)[C@@H](N=C=S)[C@@H]2O)c(=O)n1 | 34
7 | O=c1ccn([C@@H]2O[C@H](CO)[C@@H](I)[C@@H]2O)c(=O)[nH]1 | 0
8 | [N-]=[N+]=N[C@H]1[C@H](O)[C@H](n2ccc(=O)[nH]c2=O)O[C@@H]1CO | 0
